Experimental data as given in article PMC11101637, “Bioinformatics leading to conveniently accessible, helix enforcing, bicyclic ASX motif mimics (BAMMs)” (Nature Communications, 2024).
Each block holds one compound with its values, some of them ahead of it. Peptide text beside a SMILES is read from it. * marks the point of attachment. X3 = C[C@@H]1NC(=O)[C@H](CCC(N)=O)NC(=O)[C@H](CC(=O)O)NC(=O)[C@@H](N)CSCc2cc3cc(c2)CSC[C@@H](C(=O)*)NC(=O)[C@H](CSC3)NC1=O; X1 = C[C@@H]1NC(=O)[C@H](CC(=O)O)NC(=O)[C@@H](N)CSCc2cc3cc(c2)CSC[C@@H](C(=O)*)NC(=O)[C@H](CSC3)NC(=O)[C@H](CO)NC1=O; X2 = C[C@@H]1NC(=O)[C@H](C)NC(=O)[C@H](CC(=O)O)NC(=O)[C@@H](N)CSCc2cc3cc(c2)CSC[C@@H](C(=O)*)NC(=O)[C@H](CSC3)NC1=O

Assays:
[1] = CD spectroscopy: percent helicity and ellipticity ratio 222/208 nm; type: physicochemical; conditions: for % helicity: 5-30 μM peptide, three scans averaged, [θ]222/[θ]max
Protocol: Circular dichroism (CD) experiments
Concentrations of the stock solution were determined by […] absorption of Trp or 275 nm absorption of Tyr (and TMB, if present in peptides). Each sample was dissolved in 1x PBS (pH 7.4), 10% TFE/PBS or 20% TFE/PBS with the final concentration between 5 to 30 μM. CD spectra were acquired using circular dichroism spectrometer (Chirascan) equipped with a temperature controller using 1 mm cell at a scan speed of 0.5 nm/sec at indicated temperature. Each sample was scanned three times and the averaged spectrum was smoothed.
Calculation of percent helicity
For simplicity, ‘helicity’ or ‘helical’ in the following text all refers to α-type. For each peptide, mean residue ellipticities ([θ]/(c*n), c = concentration of the peptide, n = number of amino acids in the peptide) were used to calculate % helicity, which is an empirical indicator of peptide helicity. […] (n = number of amino acids in the peptide, T = 25.0 °C).

circular dichroism = conditions: PBS; pH 7.4; 25 °C; 5-30 uM
[2] = In vitro peptide stability in human serum; type: in vitro ADME; conditions: 25% male human serum diluted in RPMI medium, 150 μM peptide, 37 °C, serum pre-equilibrated 15 min, methanol precipitation, RP-HPLC 210 nm peak area relative to 0 h, LC-MS for products
Protocol: In vitro peptide stability in human serum[50]
Male human serum (H-4522) was obtained from Sigma Aldrich (Missouri, USA). […] The initial time is recorded as peptides were added. The mixture was incubated at 37 °C and an aliquot of 40 μL was removed at different time intervals. […] The supernatant was analyzed in analytical RP-HPLC to calculate the amount of tested peptides, and in LCMS to analyze degradation products. The eluted peptides were detected by absorbance at 210 nm and quantified by their peak areas relative to the initial peak areas (0 h).

cyclin E [3] = target: T1, cyclin E (Homo sapiens, UniProt P24864); test: Trp fluorescence quenching assay; type: binding; conditions: 0.8 μM cyclin E in PBS pH 7.4, 25 °C, ex 295 nm, em 338 nm; n = 2 independent experiments, ± S.D.
T1 construct: purchased Sino Biological
T1 sequence (P24864 whole entry): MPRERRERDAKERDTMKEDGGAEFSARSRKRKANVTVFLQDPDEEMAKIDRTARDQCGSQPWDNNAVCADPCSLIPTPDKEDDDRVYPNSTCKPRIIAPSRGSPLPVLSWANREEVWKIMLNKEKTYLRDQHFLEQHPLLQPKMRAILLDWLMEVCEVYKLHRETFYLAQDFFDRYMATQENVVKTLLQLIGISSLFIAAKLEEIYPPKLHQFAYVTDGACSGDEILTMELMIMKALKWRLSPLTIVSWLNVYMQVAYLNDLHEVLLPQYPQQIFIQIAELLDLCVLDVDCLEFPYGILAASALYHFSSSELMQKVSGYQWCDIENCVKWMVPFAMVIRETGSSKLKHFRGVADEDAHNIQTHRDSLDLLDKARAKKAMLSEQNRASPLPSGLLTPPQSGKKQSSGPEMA
Protocol: Trp fluorescence quenching assay
Fluorescence quenching of the single tryptophan in cyclin E was measured by using a Cary Eclipse (Varian) equipped with a front-face fluorescence accessory at 25 °C, by using 10-nm excitation and 10 nm emission bandwidths. The excitation wavelength was 295 nm and the emission spectra were measured between 315 and 395 nm. Titrations were performed in a 0.7-ml quartz fluorescence cuvette containing 0.5 mL 0.8 μM protein in PBS buffer, pH 7.4, and by the successive addition of 0.5–1 μL of compound stock solutions. After each addition, the cuvette was shaken to enable fast mixture, and there were 10 mins interval between two additions to ensure equilibrium of the mixture. The measurements were repeated at least three times at each concentration. Fluorescence intensities at 338 nm at increasing concentrations of the quencher were collected. Dissociation equilibrium constant (Kd) values were determined by fitting data to the equation below[42],[43].

cyclin E [4] = target: T1, cyclin E; test: Direct FP assay to measure Kd of fluorescent peptides; type: binding; conditions: FITC-labelled peptide 20 nM final, cyclin E up to 2.4 μM final, PBS, 3 h, n=1 independent experiment in duplicate wells; not saturated, estimate value; read-out: Kd, fluorescence polarization
Protocol: Direct FP assay to measure Kd of fluorescent peptides
Polarized fluorescence intensities were measured on Synergy H4 plate reader with excitation and emission wavelengths of 485 and 535 nm with 20 nm band widths, respectively. The optics position is Top 510 nm with Gain set as 100. Read Speed is normal and read height is 7 mm. Cyclin proteins were bought from Sino Biological and after reconstitution it should be used immediately. […] To each well, 10 μL 40 nM of fluorescent peptides in PBS was added. Various concentrations of cyclin E (from Sino Biological, Inc.) were prepared (0.16–4.8 μM) and 10 μL were added to each well. The plate was shaken in the dark for 3 h. Wells containing only the peptide and PBS buffer were used as a control. Each mixture was prepared in duplicates.

[5] = CD in PBS buffer (pH 7.4, 10 mM), 25.0 °C, 1 mm cell

Compound: CC(C)C[C@H](NC(=O)[C@H](C)NC(=O)[C@H](CCCNC(=N)N)NC(=O)[C@H](CC(C)C)NC(=O)[C@H](CC(C)C)NC(=O)[C@@H]1CSCc2cc3cc(c2)CSC[C@H](N)C(=O)N[C@@H](CC(=O)O)C(=O)N[C@@H](CCC(N)=O)C(=O)N[C@@H](C)C(=O)N[C@@H](CSC3)C(=O)N1)C(=O)N[C@@H](CC(=O)O)C(=O)N[C@@H](CCC(N)=O)C(=O)N[C@@H](Cc1ccc(O)cc1)C(N)=O [2B] (X3-LLRALDQY-NH2; N-terminus and C-terminus assumed)
ellipticity ratio 222/208 nm ([1]; CD in 10% TFE/PBS, 25 °C): 1 | % helicity ([1]; CD in 10% TFE/PBS, 25 °C): 42% | % helicity [1, 5]: 25% | ellipticity ratio 222/208 nm ([1]; CD in PBS, 25 °C): 0.91 | helicity (circular dichroism): 25% | half-life at 150 μM [2]: 2.9 h

Compound: CC[C@H](C)[C@H](NC(=O)[C@H](CCC(=O)O)NC(=O)[C@H](C)NC(=O)[C@H](CC(C)C)NC(=O)[C@H](CCC(N)=O)NC(=O)[C@@H]1CSCc2cc3cc(c2)CSC[C@H](N)C(=O)N[C@@H](CC(=O)O)C(=O)N[C@@H](CCC(N)=O)C(=O)N[C@@H](C(C)C)C(=O)N[C@@H](CSC3)C(=O)N1)C(=O)N[C@@H](Cc1ccc(O)cc1)C(N)=O [1B]
ellipticity ratio 222/208 nm ([1]; CD in 10% TFE/PBS, 25 °C): 0.86 | % helicity ([1]; CD in 10% TFE/PBS, 25 °C): 43% | % helicity [1, 5]: 17% | ellipticity ratio 222/208 nm ([1]; CD in PBS, 25 °C): 0.48 | helicity (circular dichroism): 17% | half-life at 150 μM [2]: 5.1 h

ellipticity ratio 222/208 nm ([1]; CD in 10% TFE/PBS, 25 °C): 0.34 | % helicity ([1]; CD in 10% TFE/PBS, 25 °C): 20% | % helicity [1, 5]: 11% | ellipticity ratio 222/208 nm ([1]; CD in PBS, 25 °C): 0.18 | Kd (cyclin E [3]): 8.6 ± 2.8 µM
Compound: Ac-ASTAIREISLLKEY-NH2 [3l]
helicity (circular dichroism): 11%

Kd (cyclin E [4]): 4.6 ± 2.4 µM
Compound: CC[C@H](C)[C@H](NC(=O)[C@@H]1CSCc2cc3cc(c2)CSC[C@H](NC(=O)[C@H](CO)NC(=O)[C@H](C)NC(=O)[C@H](CC(=O)O)NC(=O)[C@@H](NC(=O)CCNC(=O)CCNC(=O)CCNC(=S)Nc2ccc4c(c2)C(=O)OC42c4ccc(O)cc4Oc4cc(O)ccc42)CSC3)C(=O)N1)C(=O)N[C@@H](CCCNC(=N)N)C(=O)N[C@@H](CCC(=O)O)C(=O)N[C@H](C(=O)N[C@@H](CO)C(=O)N[C@@H](CC(C)C)C(=O)N[C@@H](CC(C)C)C(=O)N[C@@H](CCCCN)C(=O)N[C@@H](CCC(=O)O)C(=O)N[C@@H](Cc1ccc(O)cc1)C(N)=O)[C@@H](C)CC [3Bf]

Compound: CC[C@H](C)[C@H](NC(=O)[C@@H]1CSCc2cc3cc(c2)CSC[C@H](N)C(=O)N[C@@H](CC(=O)O)C(=O)N[C@@H](C)C(=O)N[C@@H](CO)C(=O)N[C@@H](CSC3)C(=O)N1)C(=O)N[C@@H](CCCNC(=N)N)C(=O)N[C@@H](CCC(=O)O)C(=O)N[C@H](C(=O)N[C@@H](CO)C(=O)N[C@@H](CC(C)C)C(=O)N[C@@H](CC(C)C)C(=O)N[C@@H](CCCCN)C(=O)N[C@@H](CCC(=O)O)C(=O)N[C@@H](Cc1ccc(O)cc1)C(N)=O)[C@@H](C)CC [3B] (X1-IREISLLKEY-NH2; N-terminus and C-terminus assumed)
ellipticity ratio 222/208 nm ([1]; CD in 10% TFE/PBS, 25 °C): 0.84 | % helicity ([1]; CD in 10% TFE/PBS, 25 °C): 34% | % helicity [1, 5]: 17% | ellipticity ratio 222/208 nm ([1]; CD in PBS, 25 °C): 0.5 | helicity (circular dichroism): 17% | half-life at 150 μM [2]: 3.5 h

Compound: Ac-KNIASLLRVQAHIRKKMVY-NH2 [4l]
ellipticity ratio 222/208 nm ([1]; CD in 10% TFE/PBS, 25 °C): 0.69 | % helicity ([1]; CD in 10% TFE/PBS, 25 °C): 35% | % helicity [1, 5]: 14% | ellipticity ratio 222/208 nm ([1]; CD in PBS, 25 °C): 0.27 | helicity (circular dichroism): 14% | half-life [2]: < 1 h

Compound: CC[C@H](C)[C@H](NC(=O)[C@H](CC(N)=O)NC(=O)[C@H](CCCCN)NC(=O)[C@@H]1CSCc2cc3cc(c2)CSC[C@H](N)C(=O)N[C@@H](CC(=O)O)C(=O)N[C@@H](C)C(=O)N[C@@H](C)C(=O)N[C@@H](CSC3)C(=O)N1)C(=O)N[C@@H](C)C(=O)N[C@@H](CO)C(=O)N[C@@H](CC(C)C)C(=O)N[C@@H](CC(C)C)C(=O)N[C@@H](CCCNC(=N)N)C(=O)N[C@H](C(=O)N[C@@H](CCC(N)=O)C(=O)N[C@@H](C)C(=O)N[C@@H](Cc1c[nH]cn1)C(=O)N[C@H](C(=O)N[C@@H](CCCNC(=N)N)C(=O)N[C@@H](CCCCN)C(=O)N[C@@H](CCCCN)C(=O)N[C@@H](CCSC)C(=O)N[C@H](C(=O)N[C@@H](Cc1ccc(O)cc1)C(N)=O)C(C)C)[C@@H](C)CC)C(C)C [4B] (X2-KNIASLLRVQAHIRKKMVY-NH2; N-terminus and C-terminus assumed)
ellipticity ratio 222/208 nm ([1]; CD in 10% TFE/PBS, 25 °C): 1 | % helicity ([1]; CD in 10% TFE/PBS, 25 °C): 45% | % helicity [1, 5]: 22% | ellipticity ratio 222/208 nm ([1]; CD in PBS, 25 °C): 0.64 | half-life [2]: 1.1 h
